Two molecules from ChEMBL document CHEMBL1158015, “New steroid glycosides from the deep-water starfish Mediaster murrayi” (J Nat Prod, 1999) can be followed below.

Each structure is given as a SMILES string.

Series [1] is described as follows: Inhibition of cell division of sea urchin fertilized eggs at 25 uM. In kind it is functional. The settings on record: Strongylocentrotus intermedius, Egg.
The nature of series [2]: Toxicity in mouse erythrocytes assessed as hemolysis. Format: cell-based, Erythrocyte. The following applies: read-out: ED50 (the source's name).
The nature of series [3]: Inhibition of cell division of sea urchin fertilized eggs at 100 uM. In kind it is functional. The following applies: Strongylocentrotus intermedius, Egg.

`CO[C@H]1[C@H](OC[C@@H]2O[C@@H](O[C@@H](CC[C@@H](C)[C@H]3C[C@@H](O)[C@@H]4[C@]3(C)CC[C@H]3[C@@]4(O)C[C@H](O)C4C[C@@H](O)CC[C@@]43C)C(C)C)[C@H](O)[C@H]2O)OC[C@@H](O)[C@@H]1O` (some centres undefined) [MEDIASTEROSIDE M1] registered an inhibition at 25 µM in series [1] of 100%. The HC50 in series [2] stood at 66 µM.

On to `CC(C)[C@H](CC[C@@H](C)[C@H]1C[C@@H](O)[C@@H]2[C@]1(C)CC[C@H]1[C@@]2(O)C[C@H](O)C2C[C@@H](O)CC[C@@]21C)O[C@@H]1O[C@@H](CO[C@@H]2OC[C@@H](O)[C@H](O)[C@H]2O)[C@H](O)[C@H]1O` (some centres undefined) [MEDIASTEROSIDE M2], for which the HC50 in series [2] stood at 35 µM. Further, testing at 100 µM in series [3] gave an inhibition of 100%.
